Laboratory results from ChEMBL document CHEMBL4346687, “Design, synthesis and biological evaluation of novel uracil derivatives bearing 1, 2, 3-triazole moiety as thymidylate synthase (TS) inhibitors and as potential antitumor drugs” (Eur J Med Chem, 2019).
Active and inactive are the calls of the source. No cut-off for these calls is given here.

Experiments:
[1] = tested on: OVCAR-3; assay: cells; settings: Homo sapiens, OVCAR-3, 24 h
Description: Antiproliferative activity against human OVCAR3 cells assessed as reduction in cell viability after 24 hrs by MTT assay

[2] = tested on: A549; assay: cells; settings: Homo sapiens, A549, 24 h
Description: Antiproliferative activity against human A549 cells assessed as reduction in cell viability after 24 hrs by MTT assay

[3] = tested on: A549; assay: Cell cycle arrest in human A549 cells assessed as decrease in Cyclin E protein expression at 0.5 to 1.5 uM after 24 hrs by Western blot analysis; format: functional, cell-based
[4] = tested on: A549; assay: Induction of apoptosis in human A549 cells assessed as early apoptotic cells at 0.5 uM after 24 hrs by Annexin V-FITC/propidium iodide staining based flow cytometric analysis (reference value: 0.6%); format: functional
[5] = tested on: A549; assay: Induction of apoptosis in human A549 cells assessed as early apoptotic cells at 1 uM after 24 hrs by Annexin V-FITC/propidium iodide staining based flow cytometric analysis (reference value: 0.6%); format: functional
[6] = tested on: A549; assay: Induction of apoptosis in human A549 cells assessed as late apoptotic cells at 1 uM after 24 hrs by Annexin V-FITC/propidium iodide staining based flow cytometric analysis (reference value: 1.1%); format: functional
[7] = tested on: A549; assay: Induction of apoptosis in human A549 cells assessed as activation of caspase-3 protein level at 0.5 to 1.5 uM after 24 hrs by Western blot analysis; format: functional, cell-based
[8] = tested on: A549; assay: Antiproliferative activity against human A549 cells assessed as reduction in cell viability at 1.25 uM after 24 hrs by MTT assay; format: functional; settings: A549, 24 h
[9] = Cytotoxicity against human IOSE-80 cells assessed as reduction in cell viability after 24 hrs by MTT assay; format: cell-based; settings: IOSE-80 cells
[10] = tested on: A549; assay: Cell cycle arrest in human A549 cells assessed as increase in G0/G1 phase at 0.5 to 1.5 uM after 24 hrs by propidium iodide staining based flow cytometric analysis; format: functional
[11] = tested on: A549; assay: Induction of apoptosis in human A549 cells assessed as viable cells at 0.5 uM after 24 hrs by Annexin V-FITC/propidium iodide staining based flow cytometric analysis (reference value: 98.2%); format: functional; settings: A549, 24 h, read-out: Activity
[12] = tested on: A549; assay: Cell cycle arrest in human A549 cells assessed as decrease in Cyclin D protein expression at 0.5 to 1.5 uM after 24 hrs by Western blot analysis; format: functional, cell-based
[13] = tested on: A549; assay: Antiproliferative activity against human A549 cells assessed as reduction in cell viability at 20 uM after 24 hrs by MTT assay; format: functional; settings: A549, 24 h
[14] = tested on: A549; assay: Induction of apoptosis in human A549 cells assessed as decrease in ratio of Bcl-2/Bax at 0.5 to 1.5 uM after 24 hrs by Western blot analysis; format: functional, cell-based
[15] = tested on: A549; assay: Induction of apoptosis in human A549 cells assessed as down regulation of Bcl-2 protein expression at 0.5 to 1.5 uM after 24 hrs by Western blot analysis; format: functional, cell-based
[16] = Cytotoxicity against human HPAEpic cells assessed as reduction in cell viability after 24 hrs by MTT assay; format: cell-based; settings: HPAEpic cells
[17] = Cytotoxicity against human L02 cells assessed as reduction in cell viability after 24 hrs by MTT assay; format: cell-based; settings: L02 cells
[18] = tested on: A549; assay: Cell cycle arrest in human A549 cells assessed as decrease in G2/M phase at 0.5 to 1.5 uM after 24 hrs by propidium iodide staining based flow cytometric analysis; format: functional
[19] = tested on: A549; assay: Induction of apoptosis in human A549 cells assessed as late apoptotic cells at 1.5 uM after 24 hrs by Annexin V-FITC/propidium iodide staining based flow cytometric analysis (reference value: 1.1%); format: functional
[20] = tested on: A549; assay: Induction of late apoptosis in human A549 cells after 24 hrs by Annexin V-FITC/propidium iodide staining based flow cytometric analysis; format: functional, cell-based
[21] = tested on: SGC-7901; assay: cells; settings: Homo sapiens, SGC-7901, 24 h
Description: Antiproliferative activity against human SGC7901 cells assessed as reduction in cell viability after 24 hrs by MTT assay

[22] = tested on: A549; assay: Antiproliferative activity against human A549 cells assessed as reduction in cell viability at 5 uM after 24 hrs by MTT assay; format: functional; settings: A549, 24 h
[23] = tested on: A549; assay: Induction of early apoptosis in human A549 cells after 24 hrs by Annexin V-FITC/propidium iodide staining based flow cytometric analysis; format: functional, cell-based
[24] = tested on: A549; assay: Induction of apoptosis in human A549 cells assessed as late apoptotic cells at 0.5 uM after 24 hrs by Annexin V-FITC/propidium iodide staining based flow cytometric analysis (reference value: 1.1%); format: functional
[25] = tested on: A549; assay: Cell cycle arrest in human A549 cells assessed as decrease in S phase at 0.5 to 1.5 uM after 24 hrs by propidium iodide staining based flow cytometric analysis; format: functional
[26] = tested on: A549; assay: Induction of apoptosis in human A549 cells assessed as up regulation of Bax protein expression at 0.5 to 1.5 uM after 24 hrs by Western blot analysis; format: functional, cell-based
[27] = tested on: HepG2; assay: cells; settings: Homo sapiens, HepG2, 24 h
Description: Antiproliferative activity against human HepG2 cells assessed as reduction in cell viability after 24 hrs by MTT assay

[28] = tested on: A549; assay: Induction of apoptosis in human A549 cells assessed as viable cells at 1.5 uM after 24 hrs by Annexin V-FITC/propidium iodide staining based flow cytometric analysis (reference value: 98.2%); format: functional; settings: A549, 24 h, read-out: Activity
[29] = tested on: A549; assay: Induction of apoptosis in human A549 cells assessed as viable cells at 1 uM after 24 hrs by Annexin V-FITC/propidium iodide staining based flow cytometric analysis (reference value: 98.2%); format: functional; settings: A549, 24 h, read-out: Activity
[30] = Cytotoxicity against human GES-1 cells assessed as reduction in cell viability after 24 hrs by MTT assay; format: cell-based, GES1; settings: GES-1 cells
[31] = tested on: A549; assay: Induction of apoptosis in human A549 cells assessed as early apoptotic cells at 1.5 uM after 24 hrs by Annexin V-FITC/propidium iodide staining based flow cytometric analysis (reference value: 0.6%); format: functional
[32] = tested on: A549; assay: Induction of apoptosis in human A549 cells assessed as necrotic cells at 0.5 uM after 24 hrs by Annexin V-FITC/propidium iodide staining based flow cytometric analysis (reference value: 0.1%); format: functional
[33] = tested on: A549; assay: Induction of apoptosis in human A549 cells assessed as necrotic cells at 1 uM after 24 hrs by Annexin V-FITC/propidium iodide staining based flow cytometric analysis (reference value: 0.1%); format: functional
[34] = tested on: A549; assay: Antiproliferative activity against human A549 cells assessed as reduction in cell viability at 0.625 uM after 24 hrs by MTT assay; format: functional; settings: A549, 24 h
[35] = tested on: A549; assay: Induction of apoptosis in human A549 cells assessed as increase in cleaved caspase-3 protein level at 0.5 to 1.5 uM after 24 hrs by Western blot analysis; format: functional, cell-based
[36] = tested on: A549; assay: Induction of apoptosis in human A549 cells assessed as necrotic cells at 1.5 uM after 24 hrs by Annexin V-FITC/propidium iodide staining based flow cytometric analysis (reference value: 0.1%); format: functional
[37] = tested on: A549; assay: Antiproliferative activity against human A549 cells assessed as reduction in cell viability at 10 uM after 24 hrs by MTT assay; format: functional; settings: A549, 24 h

IC50 [1]: 1.75 µM
IC50 [2]: 1.18 µM
IC50 [21]: 2.7 µM
IC50 [27]: 1.84 µM
Compound: O=c1[nH]cc(S(=O)(=O)Nc2ccccc2-c2cn(-c3ccc(Cl)cc3)nn2)c(=O)[nH]1
Activity [3]: Dose-dependent effect
Activity [4]: 1.3%
Activity [5]: 3.5%
Activity [6]: 5.6%
Activity [7]: Active
inhibition at 1.25 µM [8]: 55.5%
CC50 at 24 h [9]: 16.5 µM
Activity [10]: Dose-dependent effect
viability at 0.5 µM [11]: 96.5%
Activity [12]: Dose-dependent effect
inhibition at 20 µM [13]: 80.2%
Activity [14]: Active
Activity [15]: Active
CC50 at 24 h [16]: 20.4 µM
CC50 at 24 h [17]: 16.8 µM
Activity [18]: Dose-dependent effect
Activity [19]: 7.1%
Activity [20]: Dose-dependent effect
inhibition at 5 µM [22]: 75.5%
Activity [23]: Dose-dependent effect
Activity [24]: 2.1%
Activity [25]: Dose-dependent effect
Activity [26]: Active
viability at 1.5 µM [28]: 84.2%
viability at 1 µM [29]: 89.7%
CC50 at 24 h [30]: 26.7 µM
Activity [31]: 4.1%
Activity [32]: 0.1%
Activity [33]: 1.2%
inhibition at 0.625 µM [34]: 32%
Activity [35]: Active
Activity [36]: 4.5%
inhibition at 10 µM [37]: 77.3%
